Data reported in patent US9353107B2 (Aurigene Discovery Technologies Limited, priority 2012, dated 2016).

Molecular target: T1, recombinant human ALK enzyme (ALK WT) (Homo sapiens, UniProt Q9UM73)
T1 construct: purchased Carna Biosciences 08-518
Assay: ALK WT cell free enzymatic assay (TR-FRET)
Format: biochemical
Conditions: 1 μM ATP; for IC50: 10 point dose response; for inhibition at 0.1 µM: compound at 100 nM; for inhibition at 0.1 µM / inhibition at 1 µM: 30 min pre-incubation; for inhibition at 1 µM: compound at 1 μM
Procedure, shortened: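 Recombinant human ALK with 40 nM Ultra Light Poly GT, 1 μM ATP and Eu anti-phosphotyrosine antibody, 1% DMSO, pH 7.1 HEPES; 30 min enzyme-compound pre-incubation, then 30 min reaction. TR-FRET 665/615 ratio; percent inhibition at 100 nM and 1 μM, IC50 from 10-point sigmoidal fit.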

T1 sequence (Q9UM73 1058-1620 limits assumed): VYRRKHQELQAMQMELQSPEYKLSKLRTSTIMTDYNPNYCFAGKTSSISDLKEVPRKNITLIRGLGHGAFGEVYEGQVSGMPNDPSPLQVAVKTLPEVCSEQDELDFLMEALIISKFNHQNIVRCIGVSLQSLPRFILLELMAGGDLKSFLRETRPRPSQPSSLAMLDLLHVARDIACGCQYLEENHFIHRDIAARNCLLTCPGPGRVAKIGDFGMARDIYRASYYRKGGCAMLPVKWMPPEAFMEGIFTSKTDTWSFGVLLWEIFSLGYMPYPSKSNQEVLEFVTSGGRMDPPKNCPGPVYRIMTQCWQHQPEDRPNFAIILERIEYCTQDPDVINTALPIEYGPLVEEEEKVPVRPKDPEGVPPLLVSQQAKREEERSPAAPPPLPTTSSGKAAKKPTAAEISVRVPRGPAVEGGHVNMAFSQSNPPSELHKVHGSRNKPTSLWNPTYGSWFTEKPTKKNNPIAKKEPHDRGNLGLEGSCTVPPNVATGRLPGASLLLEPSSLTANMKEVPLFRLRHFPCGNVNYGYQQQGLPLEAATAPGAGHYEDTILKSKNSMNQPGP

IC50 | inhibition at 0.1 µM | inhibition at 1 µM | SMILES
< 50 nM | 87% | 99% | Cc1nn(Cc2cccc(F)c2)c(C)c1-c1c[nH]c2ncc(-c3cccc(N4CCNCC4)c3)cc12 [Example 38, 3-(1-(3-fluorobenzyl)-3,5-dimethyl-1H-pyrazol-4-yl)-5-(3-(piperazin-1-yl)phenyl)-1H-pyrrolo[2,3-b]pyridine]
50 to 250 nM | 24% | 95% | c1ccc(CCn2cc(-c3c[nH]c4ncc(-c5cccc(CC6CCNCC6)c5)cc34)cn2)cc1 [Example 98, 3-(1-phenethyl-1H-pyrazol-4-yl)-5-(3-(piperidin-4-ylmethyl)phenyl)-1H-pyrrolo[2,3-b]pyridine]
< 50 nM | – | 99% | CS(=O)(=O)Nc1cccc(-c2cnc3[nH]cc(-c4cnn(Cc5cc(F)cc(F)c5)c4)c3c2)c1 [Example 6, N-(3-(3-(1-(3,5-difluorobenzyl)-1H-pyrazol-4-yl)-1H-pyrrolo[2,3-b]pyridin-5-yl)phenyl) methane sulfonamide]
